What was measured:
[1] = Inhibition of Shh-induced hedgehog signalling pathway in mouse NIH/3T3 cells expressing Gli-Luc reporter gene assessed as reduction in Gli1 transcription activity incubated for 24 hrs in presence of mouse shh stimulation by dual luciferase Assay; type: cell-based; conditions: NIH3T3, 24 h
[2] = Inhibition of Shh-induced hedgehog signalling pathway in mouse MEF cells expressing Gli-Luc reporter gene assessed as reduction in Gli1 transcription activity incubated for 24 hrs in presence of mouse shh stimulation by dual luciferase Assay; type: cell-based

IC50 [1]	IC50 [2]	SMILES
2080 nM	2800 nM	C[C@@H]1CN[C@H]2[C@@H](C)[C@@]3(CC[C@@H]4C(=C3CO)C[C@H]3[C@H]4CC=C4C[C@@H](O)CC[C@@]43C)O[C@@H]2C1
150 nM	210 nM	CC1=C2C[C@H]3[C@@H](CC=C4C[C@@H](O)CC[C@@]43C)[C@@H]2CC[C@]12O[C@@H]1[C@H](O)[C@H](C)CN[C@H]1[C@H]2C

SMILES	IC50 [1]	IC50 [2]
CC1=C2C[C@H]3[C@@H](CC=C4C[C@@H](O)CC[C@@]43C)[C@@H]2CC[C@]12O[C@@H]1C[C@H](C)CN[C@H]1[C@H]2C [CYCLOPAMINE]	270 nM	110 nM

— ChEMBL document CHEMBL5252645, “Hydroxylated cyclopamine analogues from Veratrum californicum and their hedgehog pathway inhibiting activity” (Bioorg Med Chem, 2023)
